Columns and labels:
[1] = molecular target: 5-hydroxytryptamine receptor 2B (Homo sapiens, UniProt P41595); test: GPCRScan assay: inhibition of 5-HT2B; design: radioligand conc. used [nm] 1.0 – 2.0, parental cells stable HEK
MDA-MB-157 = test: MDA_MB_157 cell line Proliferation assay; type: functional, Homo sapiens; conditions: Compound concentration 10 uM; time 5 day
[2] = molecular target: T1, 5-hydroxytryptamine receptor 3A (Homo sapiens) (UniProt P46098); conditions: Compound concentration 10.0 uM
T1 sequence (whole entry): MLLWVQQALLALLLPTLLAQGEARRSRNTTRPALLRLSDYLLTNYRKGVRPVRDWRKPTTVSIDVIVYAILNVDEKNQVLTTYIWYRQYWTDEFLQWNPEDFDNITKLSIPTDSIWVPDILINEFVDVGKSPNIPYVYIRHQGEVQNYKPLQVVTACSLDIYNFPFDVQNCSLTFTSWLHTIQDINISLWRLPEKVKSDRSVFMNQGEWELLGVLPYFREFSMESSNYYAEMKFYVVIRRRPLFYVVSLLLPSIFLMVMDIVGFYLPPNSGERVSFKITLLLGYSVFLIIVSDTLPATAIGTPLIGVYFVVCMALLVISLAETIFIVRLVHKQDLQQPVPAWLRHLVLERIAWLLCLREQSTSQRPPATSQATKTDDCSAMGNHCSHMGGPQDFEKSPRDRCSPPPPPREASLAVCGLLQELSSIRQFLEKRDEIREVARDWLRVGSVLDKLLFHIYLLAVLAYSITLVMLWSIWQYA

Raji = test: Raji cell line Proliferation assay; type: functional, Homo sapiens; conditions: Compound concentration 10 uM; time 3 day
MDA-MB-231 = test: MDA_MB_231 cell line Proliferation assay; type: functional, Homo sapiens; conditions: Compound concentration 10 uM; time 5 day
[3] = molecular target: Calcitonin-gene-related peptide receptor, CALCRL/RAMP1 (Homo sapiens) (UniProt O60894+Q16602); test: CGRP (h) CEREP ligand profiling; type: protein-complex assay; conditions: filed as agonist, Compound concentration 10.0 uM
ULA = test: ULA cell line Proliferation assay; type: functional, Homo sapiens; conditions: Compound concentration 10 uM; time 3 day
U-2973 = test: U2973 cell line Proliferation assay; type: functional, Homo sapiens; conditions: Compound concentration 10 uM; time 3 day
NCI-H661 = test: H661 cell line Proliferation assay; type: functional, Homo sapiens; conditions: Compound concentration 10 uM; time 3 day
HCC70 = test: HCC70 cell line Proliferation assay; type: functional, Homo sapiens; conditions: Compound concentration 10 uM; time 5 day
MOLT-4 = test: MOLT-4 cell line Proliferation assay; type: functional, Homo sapiens; conditions: Compound concentration 10 uM; time 3 day
[4] = molecular target: Histone acetyltransferase KAT6A (Homo sapiens) (UniProt Q92794); test: MYST3 (HAT) CEREP ligand profiling; conditions: Compound concentration 10.0 uM
SU-DHL-16 = test: SuDHL16 cell line Proliferation assay; type: functional, Homo sapiens; conditions: Compound concentration 10 uM; time 3 day
RL = test: RL cell line Proliferation assay; type: functional, Homo sapiens; conditions: Compound concentration 10 uM; time 3 day
A-375 = test: A375 cell line Proliferation assay; type: functional, Homo sapiens; conditions: Compound concentration 10 uM; time 5 day
K562 = test: K562 cell line Proliferation assay; type: functional, Homo sapiens; conditions: Compound concentration 10 uM; time 3 day
KMS-11 = test: KMS-11 cell line Proliferation assay; type: functional, Homo sapiens; conditions: Compound concentration 10 uM; time 3 day
LNCaP-Clone-FGC = test: LnCaP -FGC cell line Proliferation assay; type: functional, Homo sapiens; conditions: Compound concentration 10 uM; time 5 day
HL-60 = test: HL-60 cell line Proliferation assay; type: functional, Homo sapiens; conditions: Compound concentration 10 uM; time 3 day
NU-DUL-1 = test: NuDUL1 cell line Proliferation assay; type: functional, Homo sapiens; conditions: Compound concentration 10 uM; time 3 day
CWR22R = test: 22Rv1 cell line Proliferation assay; type: functional, Homo sapiens; conditions: Compound concentration 10 uM; time 5 day
NCI-H209 = test: H209 cell line Proliferation assay; type: functional, Homo sapiens; conditions: Compound concentration 10 uM; time 4 day
CA46 = test: CA46 cell line Proliferation assay; type: functional, Homo sapiens; conditions: Compound concentration 10 uM; time 3 day
SET-2 = test: SET-2 cell line Proliferation assay; type: functional, Homo sapiens; conditions: Compound concentration 10 uM; time 3 day
[5] = molecular target: Histone acetyltransferase KAT6B (Homo sapiens) (UniProt Q8WYB5); test: MYST4 (HAT) CEREP ligand profiling; conditions: Compound concentration 10.0 uM
Sequence of Histone acetyltransferase KAT6B (Homo sapiens) (Q8WYB5 whole entry): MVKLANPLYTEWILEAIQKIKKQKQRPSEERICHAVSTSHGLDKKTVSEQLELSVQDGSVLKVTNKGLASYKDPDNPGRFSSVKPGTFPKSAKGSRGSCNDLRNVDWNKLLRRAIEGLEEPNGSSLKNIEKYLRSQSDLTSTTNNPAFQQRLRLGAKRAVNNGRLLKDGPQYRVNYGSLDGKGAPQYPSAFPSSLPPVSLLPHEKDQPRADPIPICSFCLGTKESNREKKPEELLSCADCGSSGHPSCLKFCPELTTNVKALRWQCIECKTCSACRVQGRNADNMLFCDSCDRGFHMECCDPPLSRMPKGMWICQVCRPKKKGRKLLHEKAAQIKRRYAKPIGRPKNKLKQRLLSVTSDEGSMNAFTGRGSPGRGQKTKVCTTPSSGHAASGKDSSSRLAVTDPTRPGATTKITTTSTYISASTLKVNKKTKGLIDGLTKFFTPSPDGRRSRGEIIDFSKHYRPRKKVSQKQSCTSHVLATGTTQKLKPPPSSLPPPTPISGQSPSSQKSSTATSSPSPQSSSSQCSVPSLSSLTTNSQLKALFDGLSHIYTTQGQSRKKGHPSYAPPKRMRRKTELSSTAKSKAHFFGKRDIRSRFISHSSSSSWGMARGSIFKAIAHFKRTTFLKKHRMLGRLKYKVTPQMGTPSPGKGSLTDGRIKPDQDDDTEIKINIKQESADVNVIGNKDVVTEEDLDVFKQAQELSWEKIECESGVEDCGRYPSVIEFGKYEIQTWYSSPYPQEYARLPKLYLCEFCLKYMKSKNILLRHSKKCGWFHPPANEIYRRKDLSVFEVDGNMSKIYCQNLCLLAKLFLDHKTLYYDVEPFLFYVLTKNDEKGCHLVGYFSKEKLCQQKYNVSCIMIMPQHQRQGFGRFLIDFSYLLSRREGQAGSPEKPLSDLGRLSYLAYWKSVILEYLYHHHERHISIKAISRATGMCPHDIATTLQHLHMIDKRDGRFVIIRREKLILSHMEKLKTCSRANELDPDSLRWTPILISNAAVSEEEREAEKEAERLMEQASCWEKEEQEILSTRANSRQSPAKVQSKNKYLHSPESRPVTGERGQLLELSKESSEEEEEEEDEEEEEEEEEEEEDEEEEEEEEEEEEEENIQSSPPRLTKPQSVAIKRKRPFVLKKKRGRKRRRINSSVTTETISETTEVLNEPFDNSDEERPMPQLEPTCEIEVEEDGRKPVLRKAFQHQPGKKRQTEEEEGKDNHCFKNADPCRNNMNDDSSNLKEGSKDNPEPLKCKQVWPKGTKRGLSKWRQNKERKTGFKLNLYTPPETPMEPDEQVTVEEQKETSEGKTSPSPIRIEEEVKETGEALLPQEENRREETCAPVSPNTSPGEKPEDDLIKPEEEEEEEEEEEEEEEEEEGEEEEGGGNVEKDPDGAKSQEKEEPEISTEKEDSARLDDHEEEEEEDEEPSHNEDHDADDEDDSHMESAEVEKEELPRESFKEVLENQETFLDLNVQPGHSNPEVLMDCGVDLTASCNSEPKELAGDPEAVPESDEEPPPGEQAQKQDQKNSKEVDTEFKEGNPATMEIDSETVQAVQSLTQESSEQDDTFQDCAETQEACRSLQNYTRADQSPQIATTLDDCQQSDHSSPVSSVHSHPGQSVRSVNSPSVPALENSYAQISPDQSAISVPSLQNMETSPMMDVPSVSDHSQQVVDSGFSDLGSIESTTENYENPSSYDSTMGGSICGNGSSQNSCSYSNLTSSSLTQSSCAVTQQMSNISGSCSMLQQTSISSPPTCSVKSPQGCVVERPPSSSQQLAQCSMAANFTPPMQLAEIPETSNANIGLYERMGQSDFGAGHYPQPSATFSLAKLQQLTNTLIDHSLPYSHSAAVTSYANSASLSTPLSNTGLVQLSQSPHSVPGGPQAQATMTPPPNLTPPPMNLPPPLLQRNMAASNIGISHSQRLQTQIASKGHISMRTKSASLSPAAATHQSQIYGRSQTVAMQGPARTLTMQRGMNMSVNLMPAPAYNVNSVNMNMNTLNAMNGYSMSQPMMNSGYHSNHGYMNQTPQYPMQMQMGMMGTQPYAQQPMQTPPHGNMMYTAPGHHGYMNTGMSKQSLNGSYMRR

NCI-H596 = test: H596 cell line Proliferation assay; type: functional, Homo sapiens; conditions: Compound concentration 10 uM; time 3 day
[6] = molecular target: Translocator protein (Rattus norvegicus) (UniProt P16257); test: BZD (peripheral) CEREP ligand profiling; conditions: filed as antagonist; Compound concentration 10.0 uM
Sequence of Translocator protein (Rattus norvegicus) (P16257 whole entry, looked up): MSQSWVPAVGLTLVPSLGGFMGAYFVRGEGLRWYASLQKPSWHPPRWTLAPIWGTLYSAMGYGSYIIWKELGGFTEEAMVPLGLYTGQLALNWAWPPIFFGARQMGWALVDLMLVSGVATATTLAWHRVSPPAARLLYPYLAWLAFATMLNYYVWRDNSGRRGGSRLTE

[7] = molecular target: Histone acetyltransferase KAT5 (Homo sapiens) (UniProt Q92993); test: TIP60 (HAT) CEREP ligand profiling; conditions: Compound concentration 10.0 uM
Sequence of Histone acetyltransferase KAT5 (Homo sapiens) (Q92993 whole entry, looked up): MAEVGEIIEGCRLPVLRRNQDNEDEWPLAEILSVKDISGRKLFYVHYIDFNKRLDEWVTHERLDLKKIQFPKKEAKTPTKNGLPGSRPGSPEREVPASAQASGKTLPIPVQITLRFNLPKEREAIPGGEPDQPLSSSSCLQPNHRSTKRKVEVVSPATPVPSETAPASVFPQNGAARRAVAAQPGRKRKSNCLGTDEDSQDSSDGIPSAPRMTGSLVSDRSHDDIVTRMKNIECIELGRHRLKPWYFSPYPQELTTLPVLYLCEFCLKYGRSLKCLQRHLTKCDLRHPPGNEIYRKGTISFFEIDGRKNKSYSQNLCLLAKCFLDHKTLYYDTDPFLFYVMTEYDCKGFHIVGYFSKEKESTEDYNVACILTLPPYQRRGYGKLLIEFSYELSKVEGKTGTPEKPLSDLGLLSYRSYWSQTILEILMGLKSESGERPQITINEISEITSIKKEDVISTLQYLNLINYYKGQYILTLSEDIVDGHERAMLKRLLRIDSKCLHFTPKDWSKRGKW

THP-1 = test: THP-1 cell line Proliferation assay; type: functional, Homo sapiens; conditions: Compound concentration 10 uM; time 3 day
NU-DHL-1 = test: NuDHL1 cell line Proliferation assay; type: functional, Homo sapiens; conditions: Compound concentration 10 uM; time 3 day
MDA-MB-468 = test: MDA_MB_468 cell line Proliferation assay; type: functional, Homo sapiens; conditions: Compound concentration 10 uM; time 5 day
HCC1395 = test: HCC1395 cell line Proliferation assay; type: functional, Homo sapiens; conditions: Compound concentration 10 uM; time 5 day
HCC38 = test: HCC38 cell line Proliferation assay; type: functional, Homo sapiens; conditions: Compound concentration 10 uM; time 5 day
Granta-519 = test: Granta 519 cell line Proliferation assay; type: functional, Homo sapiens; conditions: Compound concentration 10 uM; time 3 day
WM 266-4 = test: WM2664 cell line Proliferation assay; type: functional, Homo sapiens; conditions: Compound concentration 10 uM; time 5 day
SK-MEL-1 = test: SKMEL1 cell line Proliferation assay; type: functional, Homo sapiens; conditions: Compound concentration 10 uM; time 5 day
NCI-H146 = test: H146 cell line Proliferation assay; type: functional, Homo sapiens; conditions: Compound concentration 10 uM; time 4 day
[8] = molecular target: Delta-type opioid receptor (Homo sapiens) (UniProt P41143); conditions: Compound concentration 10.0 uM
WSU-NHL = test: WSU-NHL cell line Proliferation assay; type: functional, Homo sapiens; conditions: Compound concentration 10 uM; time 3 day
NCI-H522 = test: H522 cell line Proliferation assay; type: functional, Homo sapiens; conditions: Compound concentration 10 uM; time 3 day
CHL-1 = test: CHL1 cell line Proliferation assay; type: functional, Homo sapiens; conditions: Compound concentration 10 uM; time 5 day
NCI-H1373 = test: H1373 cell line Proliferation assay; type: functional, Homo sapiens; conditions: Compound concentration 10 uM; time 3 day
HCC1937 = test: HCC1937 cell line Proliferation assay; type: functional, Homo sapiens; conditions: Compound concentration 10 uM; time 5 day
AMO1 = test: AMO-1 cell line Proliferation assay; type: functional, Homo sapiens; conditions: Compound concentration 10 uM; time 3 day
EOL1 = test: EOL-1 cell line Proliferation assay; type: functional, Homo sapiens; conditions: Compound concentration 10 uM; time 3 day
DOHH-2 = test: DoHH2 cell line Proliferation assay; type: functional, Homo sapiens; conditions: Compound concentration 10 uM; time 3 day
OCI-Ly1 = test: OCI Ly1 cell line Proliferation assay; type: functional, Homo sapiens; conditions: Compound concentration 10 uM; time 3 day
[9] = molecular target: Prostaglandin G/H synthase 1 (Homo sapiens) (UniProt P23219); test: COX1(h) CEREP ligand profiling; conditions: Compound concentration 10.0 uM
Sequence of Prostaglandin G/H synthase 1 (Homo sapiens) (P23219 whole entry): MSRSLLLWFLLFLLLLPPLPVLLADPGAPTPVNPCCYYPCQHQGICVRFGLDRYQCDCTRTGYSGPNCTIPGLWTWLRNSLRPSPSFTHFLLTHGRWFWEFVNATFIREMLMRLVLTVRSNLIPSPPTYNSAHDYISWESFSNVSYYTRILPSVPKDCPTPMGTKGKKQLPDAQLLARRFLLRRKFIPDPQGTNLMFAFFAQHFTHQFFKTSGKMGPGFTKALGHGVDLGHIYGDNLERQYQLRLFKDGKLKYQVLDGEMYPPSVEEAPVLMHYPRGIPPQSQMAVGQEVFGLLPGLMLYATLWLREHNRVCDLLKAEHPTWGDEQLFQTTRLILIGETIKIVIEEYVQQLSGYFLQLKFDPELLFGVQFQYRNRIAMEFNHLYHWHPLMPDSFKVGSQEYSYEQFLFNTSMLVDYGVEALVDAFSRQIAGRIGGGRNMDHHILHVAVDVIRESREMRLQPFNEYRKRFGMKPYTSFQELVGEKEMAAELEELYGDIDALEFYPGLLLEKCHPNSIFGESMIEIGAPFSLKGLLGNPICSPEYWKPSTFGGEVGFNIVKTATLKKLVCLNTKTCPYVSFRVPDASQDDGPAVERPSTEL

[10] = molecular target: CREB-binding protein/Histone acetyltransferase p300 (Homo sapiens, UniProt Q09472+Q92793); test: Inhibition of H3K27Ac (DU-145); type: cell-based
[11] = molecular target: Receptor-type tyrosine-protein kinase FLT3 (Homo sapiens) (UniProt P36888); conditions: Compound concentration 1000.0 nM
[12] = molecular target: Tyrosine-protein kinase JAK1 (Homo sapiens) (UniProt P23458); conditions: Compound concentration 1000.0 nM
[13] = molecular target: Tyrosine-protein kinase ITK/TSK (Homo sapiens) (UniProt Q08881); conditions: Compound concentration 1000.0 nM
[14] = molecular target: cGMP-inhibited 3',5'-cyclic phosphodiesterase 3A (Homo sapiens) (UniProt Q14432); test: PDE3A (h) CEREP ligand profiling; conditions: Compound concentration 10.0 uM
[15] = molecular target: Mu-type opioid receptor (Homo sapiens) (UniProt P35372); conditions: Compound concentration 10.0 uM
Sequence of Mu-type opioid receptor (Homo sapiens) (P35372 whole entry): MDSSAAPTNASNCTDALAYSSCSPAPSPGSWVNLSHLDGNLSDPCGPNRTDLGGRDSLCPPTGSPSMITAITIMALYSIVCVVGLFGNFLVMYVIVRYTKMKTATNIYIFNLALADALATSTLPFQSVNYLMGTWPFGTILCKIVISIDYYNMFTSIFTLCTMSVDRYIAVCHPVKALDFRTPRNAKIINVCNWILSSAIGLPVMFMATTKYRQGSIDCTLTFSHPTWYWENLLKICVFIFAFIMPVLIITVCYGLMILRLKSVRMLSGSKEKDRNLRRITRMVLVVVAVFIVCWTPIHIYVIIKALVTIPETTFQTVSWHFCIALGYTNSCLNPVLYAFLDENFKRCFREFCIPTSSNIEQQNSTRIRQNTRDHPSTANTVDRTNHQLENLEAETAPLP

[16] = molecular target: Homeodomain-interacting protein kinase 1 (Homo sapiens) (UniProt Q86Z02); conditions: Compound concentration 1000.0 nM
[17] = molecular target: Cyclin-dependent kinase 18 (Homo sapiens) (UniProt Q07002); conditions: Compound concentration 1000.0 nM
Sequence of Cyclin-dependent kinase 18 (Homo sapiens) (Q07002 whole entry): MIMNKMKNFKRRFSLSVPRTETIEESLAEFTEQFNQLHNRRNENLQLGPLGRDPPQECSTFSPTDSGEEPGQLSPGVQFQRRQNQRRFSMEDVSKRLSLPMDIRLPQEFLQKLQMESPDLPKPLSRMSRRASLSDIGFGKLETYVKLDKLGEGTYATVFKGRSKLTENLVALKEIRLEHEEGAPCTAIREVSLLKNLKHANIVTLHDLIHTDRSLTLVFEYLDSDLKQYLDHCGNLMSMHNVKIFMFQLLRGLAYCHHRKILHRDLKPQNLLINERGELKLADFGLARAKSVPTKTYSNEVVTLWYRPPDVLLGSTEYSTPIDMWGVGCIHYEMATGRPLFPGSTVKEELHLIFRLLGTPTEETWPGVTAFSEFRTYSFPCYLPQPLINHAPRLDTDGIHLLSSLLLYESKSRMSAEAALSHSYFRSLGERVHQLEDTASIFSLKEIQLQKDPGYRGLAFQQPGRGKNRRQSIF

Sequence of 5-hydroxytryptamine receptor 2B (P41595 whole entry): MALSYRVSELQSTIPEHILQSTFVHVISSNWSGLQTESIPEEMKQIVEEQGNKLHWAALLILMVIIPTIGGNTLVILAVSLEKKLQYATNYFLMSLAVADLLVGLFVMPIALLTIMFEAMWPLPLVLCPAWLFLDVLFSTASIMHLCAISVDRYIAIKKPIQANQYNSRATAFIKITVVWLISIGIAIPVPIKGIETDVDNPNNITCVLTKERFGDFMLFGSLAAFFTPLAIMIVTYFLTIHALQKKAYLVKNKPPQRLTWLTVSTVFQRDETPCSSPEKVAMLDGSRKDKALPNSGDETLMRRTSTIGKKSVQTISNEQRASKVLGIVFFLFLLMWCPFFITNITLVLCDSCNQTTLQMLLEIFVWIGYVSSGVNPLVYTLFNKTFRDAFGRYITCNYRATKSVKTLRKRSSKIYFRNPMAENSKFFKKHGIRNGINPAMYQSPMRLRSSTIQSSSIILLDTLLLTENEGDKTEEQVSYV

In the case of CNC(=O)Nc1ccc2c(c1)CC[C@@]21OC(=O)N(CC(=O)N(Cc2ccc(F)cc2)[C@@H](C)C(F)(F)F)C1=O [A-485], the Ki ([1]; read-out: Ki) is reported as 1290 nM, the Ki ([1]; read-out: pKi (converted)) is reported as 1200 nM and the “Cell Proliferation EC50” value (MDA-MB-157) is reported as 4592 nM. The inhibition [2] was -8.97%, the “Cell Proliferation EC50” value (Raji) was 463.1 nM and the “Cell Proliferation EC50” value (MDA-MB-231) was greater than 10000 nM. The inhibition [3] was 0%, the “Cell Proliferation EC50” value (ULA) was 550.6 nM and the “Cell Proliferation EC50” value (U-2973) was 662.2 nM. For the same molecule, the “Cell Proliferation EC50” value (NCI-H661) was 7664 nM, the “Cell Proliferation EC50” value (HCC70) was greater than 10000 nM and the “Cell Proliferation EC50” value (MOLT-4) was greater than 10000 nM. For the same molecule, the inhibition [4] was 5.6%, the “Cell Proliferation EC50” value (SU-DHL-16) was 730.4 nM and the “Cell Proliferation EC50” value (RL) was 1047 nM. The “Cell Proliferation EC50” value (A-375) was greater than 10000 nM, the “Cell Proliferation EC50” value (K562) was 1270 nM and the “Cell Proliferation EC50” value (KMS-11) was 241 nM. The “Cell Proliferation EC50” value (LNCaP-Clone-FGC) was 260 nM, the “Cell Proliferation EC50” value (HL-60) was greater than 10000 nM and the “Cell Proliferation EC50” value (NU-DUL-1) was 478.1 nM. The “Cell Proliferation EC50” value (CWR22R) was 320 nM, the “Cell Proliferation EC50” value (NCI-H209) was 400 nM and the “Cell Proliferation EC50” value (CA46) was 480.9 nM. The “Cell Proliferation EC50” value (SET-2) was 2010 nM, the inhibition [5] was 1.4% and the “Cell Proliferation EC50” value (NCI-H596) was greater than 10000 nM. For the same molecule, the inhibition [6] was 72%, the inhibition [7] was -1.9% and the “Cell Proliferation EC50” value (THP-1) was 3510 nM. For the same molecule, the “Cell Proliferation EC50” value (NU-DHL-1) was 530.1 nM, the “Cell Proliferation EC50” value (MDA-MB-468) was 376.7 nM and the “Cell Proliferation EC50” value (HCC1395) was greater than 10000 nM. The “Cell Proliferation EC50” value (HCC38) was greater than 10000 nM, the “Cell Proliferation EC50” value (Granta-519) was 3280 nM and the “Cell Proliferation EC50” value (WM 266-4) was 1914 nM. For the same molecule, the “Cell Proliferation EC50” value (SK-MEL-1) was 571 nM, the “Cell Proliferation EC50” value (NCI-H146) was 400 nM and the inhibition [8] was -2.53%. For the same molecule, the “Cell Proliferation EC50” value (WSU-NHL) was 1063 nM, the “Cell Proliferation EC50” value (NCI-H522) was 3517 nM and the “Cell Proliferation EC50” value (CHL-1) was 366 nM. The “Cell Proliferation EC50” value (NCI-H1373) was 2341 nM, the “Cell Proliferation EC50” value (HCC1937) was greater than 10000 nM and the “Cell Proliferation EC50” value (AMO1) was 1093 nM. The “Cell Proliferation EC50” value (EOL1) was greater than 10000 nM, the “Cell Proliferation EC50” value (DOHH-2) was 751.2 nM and the “Cell Proliferation EC50” value (OCI-Ly1) was 940.5 nM.

CNC(=O)Nc1ccc2c(c1)[C@@]1(CC2)OC(=O)N(CC(=O)N(Cc2ccc(F)cc2)[C@@H](C)C(F)(F)F)C1=O [A-486] gave an inhibition [9] of -5%, an IC50 [10] greater than 10000 nM and a residual activity [11] of 92%. For the same molecule, the residual activity [12] was 93%, the residual activity [13] was 92% and the inhibition [14] was -1%. For the same molecule, the inhibition [15] was -5.11%, the residual activity [16] was 78% and the residual activity [17] was 100%.

From ChEMBL document CHEMBL4507259 (2021)
